In US20210330611A1, “THERAPY FOR NEUROLOGICAL DISEASES/DISORDERS” (priority 2020, published 2021):
Where a name gives a salt, the structure may show the parent alone. Read-outs that look alike come from different tables or passages of the source.

How the values were obtained:
[1] = in vitro; details: rat
[2] = in vitro; details: rat, Cell Toxicity IC50 (uM) [cFib assay]
[3] = tested on: primary rat microglia; details: rat
[4] = tested on: primary rat microglia; experiment: Cell toxicity (dead cells, size <150 μm2) in coated fibrin (cFib) assay; details: primary microglia HTS;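 as to Fibrin % cell toxicity: share of dead cells sized under 150 µm2 at 10 µM in fibrin-stimulated microglia HTS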
[5] = tested on: primary rat microglia; experiment: Cell toxicity (dead cells, size <150 μm2) in LPS assay; details: for LPS % cell toxicity: primary microglia HTS, LPS stimulation, decreased size (<150 μm^2) as marker of toxicity; for IC50: read-out: Cell Toxicity IC50 (uM) [LPS assay], LPS assay
[6] = tested on: fibrin-induced microglia activation; experiment: Image-based assay of fibrin-induced microglia activation (HTS and dose response); type: cell-based, rat; details: for IC50 / inhibition at 10 µM: Rattus norvegicus, Microglia; for inhibition at 10 µM: primary microglia HTS, fibrin stimulation, read-out: Fibrin % inhibition
[7] = tested on: LPS-induced microglia activation; experiment: Image-based assay of LPS-induced microglia activation (HTS and dose response); type: cell-based, rat; details: Rattus norvegicus, Microglia; for inhibition at 10 µM: primary microglia HTS, LPS stimulation, read-out: LPS % inhibition
[8] = tested on: fibrin- and LPS-induced microglia activation; experiment: cells; type: cell-based, rat; details: for inhibition at 10 µM: Rattus norvegicus
[9] = fibrin stimulation, decreased size (<150 μm^2) as marker of toxicity
[10] = 48 h, Table 1, dose response 0.001-20 μM, triplicates, primary rat microglia, 48 h, read-out: Fibrin IC50
[11] = Table 3, read-out: Fibrin IC50 (uM) (Suppl. Table 7)
[12] = Table 6, read-out: Fibrin IC50 (uM) (Suppl. Table 7)
[13] = dose response, fibrin-induced microglia activation, read-out: Fibrin IC50
[14] = fibrin-induced microglia activation, dose response, read-out: Fibrin IC50 (uM) (Suppl. Table 7)
[15] = increased cell size (>800 μm^2) as marker of activation
[16] = 48 h, Table 1, dose response 0.001-20 μM, triplicates, primary rat microglia, 48 h, read-out: LPS IC50
[17] = 48 h, increased cell size (>800 μm^2) as marker of activation
[18] = LPS-induced microglia activation, dose response, read-out: LPS IC50 (uM) (Suppl. Table 7)
[19] = Table 3, read-out: LPS IC50 (uM) (Suppl. Table 7)
[20] = Table 6, read-out: LPS IC50 (uM) (Suppl. Table 7)
[21] = dose response, LPS-induced microglia activation, read-out: LPS IC50
[22] = HTS of 1907 compounds, quadrant by fibrin and LPS inhibition
[23] = Microglia, Table 3, read-out: Cherry-picked Hit (Suppl. Table 7)
[24] = Microglia, HTS hit classification, read-out: Hit
[25] = quadrant by fibrin and LPS inhibition in HTS of 1907 compounds
[26] = hit classification in microglia HTS, read-out: Cherry-picked Hit (Suppl. Table 7)

SMILES | IC50 [1] | IC50 ([2]; Table 3) | IC50 ([2]; cFib assay) | Fibrin % cell toxicity [4, 9] | LPS % cell toxicity [5] | IC50 [5] | IC50 [6, 10] | IC50 [6, 11] | IC50 [6, 13] | IC50 [6, 14] | inhibition at 10 µM [6, 15] | IC50 [7, 16] | inhibition at 10 µM [7, 17] | IC50 [7, 18] | IC50 [7, 19] | IC50 [7, 21] | Quadrant (FIG. 5b) [8, 22] | inhibition at 10 µM [8, 24] | Quadrant (FIG. 5b) ([8]; Table 1, screen at 10 μM) | Quadrant (FIG. 5b) [8, 25] | further results
CC(=O)OCC(=O)[C@@]1(OC(C)=O)[C@@H](C)C[C@H]2[C@@H]3C[C@H](F)C4=CC(=O)C=C[C@]4(C)[C@@]3(F)[C@@H](O)C[C@@]21C [Diflorasone diacetate, reference compound] | > 20 µM | > 20 µM | > 20 µM | 1% | 1% | > 20 µM | 0.01 µM | 0.01 µM | 0.01 µM | 0.01 µM | 76% | > 20 µM | 39% | > 20 µM | > 20 µM | > 20 µM | Q3 | > 50% | Q3 | Q3 | IC50 ([2]; cFib assay, Table 6): > 20 µM; LPS % cell toxicity [3]: 0%; Fibrin % cell toxicity ([4]; fibrin assay, dead cells (size <150 μm2), compounds at 10 μM): 1%; IC50 ([5]; Table 6): > 20 µM; Fibrin Selectivity [6]: 2188; Fibrin Selectivity (LOG10) [6]: 3.34; IC50 [6, 12]: 0.01 µM; inhibition at 10 µM ([6]; compounds at 10 μM): 42%; Fibrin Selectivity (LOG10) ([6]; fibrin vs LPS, LOG10, Table 6): 3.34; Fibrin Selectivity ([6]; fibrin vs LPS, Table 6): 2188; IC50 [7, 20]: > 20 µM; inhibition at 10 µM ([7]; compounds at 10 μM): 31%; inhibition at 10 µM [8, 23]: > 50%; Quadrant (FIG. 5b) ([8]; Table 3, screen at 10 μM): Q3; Quadrant (FIG. 5b) ([8]; classification by fibrin and LPS inhibition, HTS at 10 μM): Q4; Quadrant (FIG. 5b) ([8]; microglia HTS, Table 6): Q3
NCCc1cc[nH]n1 [Betazole hydrochloride, reference compound] | > 20 µM | > 20 µM | > 20 µM | 1% | 1% | > 20 µM | 12 µM | 12 µM | 12 µM | 12 µM | 59% | > 20 µM | 38% | > 20 µM | > 20 µM | > 20 µM | Q3 | > 50% | Q3 | Q3 | Fibrin Selectivity [6]: 2; Fibrin Selectivity (LOG10) [6]: 0.22; inhibition at 10 µM [8, 23]: > 50%; Quadrant (FIG. 5b) ([8]; Table 3, screen at 10 μM): Q3
CC(=O)O[C@@]12CO[C@@H]1C[C@H](O)[C@@]1(C)C(=O)[C@H](O)C3=C(C)[C@@H](OC(=O)[C@H](O)[C@@H](NC(=O)OC(C)(C)C)c4ccccc4)C[C@@](O)([C@@H](OC(=O)c4ccccc4)[C@H]21)C3(C)C [Docetaxel, reference compound] | > 20 µM | > 20 µM | > 20 µM |  |  | > 20 µM |  | 0.002 µM |  |  | 64% | > 20 µM | 32% | > 20 µM | > 20 µM | > 20 µM | Q3 | > 50% | Q3 | Q3 | IC50 ([2]; cFib assay, Table 6): > 20 µM; LPS % cell toxicity [3]: 1%; IC50 ([5]; Table 6): > 20 µM; IC50 [6, 12]: 0.002 µM; Fibrin Selectivity (LOG10) ([6]; fibrin vs LPS, LOG10, Table 6): 3.99; Fibrin Selectivity ([6]; fibrin vs LPS, Table 6): 9814; IC50 [7, 20]: > 20 µM; inhibition at 10 µM [8, 23]: > 50%; Quadrant (FIG. 5b) ([8]; Table 3, screen at 10 μM): Q3; Quadrant (FIG. 5b) ([8]; microglia HTS, Table 6): Q3
c1ccc2[nH]c(-c3cscn3)nc2c1 [Thiabendazole, reference compound] | > 20 µM |  | > 20 µM | 1% | 1% |  | > 20 µM |  | > 20 µM | > 20 µM | 58% | > 20 µM | 62% | > 20 µM |  | > 20 µM | Q2 | > 50% | Q2 | Q2 | inhibition at 10 µM [8, 26]: > 50%
CN(C)CCCOc1nn(Cc2ccccc2)c2ccccc12 [Benzydamine hydrochloride, reference compound] | 8 µM |  | 20 µM | 1% | 6% |  | 6 µM |  | 6 µM | 6 µM | 75% | 3 µM | 102% | 3 µM |  | 3 µM | Q2 | > 50% | Q2 | Q2 | inhibition at 10 µM [8, 26]: > 50%
CC(=O)OCC(=O)[C@@]1(O)CC[C@H]2[C@@H]3CCC4=CC(=O)C=C[C@]4(C)[C@@]3(Cl)[C@@H](Cl)C[C@@]21C [Dichlorisone acetate, reference compound] | > 20 µM | > 20 µM | > 20 µM | 3% | 1% | > 20 µM | 0.03 µM | 0.03 µM | 0.03 µM | 0.03 µM | 108% | 4 µM | 74% | 4 µM | 4 µM | 4 µM | Q2 | > 50% | Q2 | Q2 | IC50 ([2]; cFib assay, Table 6): > 20 µM; IC50 ([5]; Table 6): > 20 µM; Fibrin Selectivity [6]: 169; Fibrin Selectivity (LOG10) [6]: 2.23; IC50 [6, 12]: 0.03 µM; IC50 [7, 20]: 4 µM; inhibition at 10 µM [8, 23]: > 50%; Quadrant (FIG. 5b) ([8]; Table 3, screen at 10 μM): Q2; Quadrant (FIG. 5b) ([8]; microglia HTS, Table 6): Q2
COc1c(C)c2c(c(O)c1C/C=C(\C)CCC(=O)O)C(=O)OC2 [Mycophenolic acid, reference compound] | > 20 µM |  | > 20 µM | 1% | 2% |  | 1 µM |  | 1 µM | 1 µM | 94% | 1 µM | 91% | 1 µM |  | 1 µM | Q2 | > 50% | Q2 | Q2 | inhibition at 10 µM [8, 26]: > 50%; Quadrant (FIG. 5b) ([8]; Table 2, screen at 10 μM): Q2; Activity ([8]; Table 7, fib = fibrin, LPS, tox = toxicity): fib/LPS
S=C=NCc1ccccc1 [Benzyl isothiocyanate, reference compound] | > 20 µM | > 20 µM | > 20 µM | 2% | 2% | > 20 µM | 10 µM | 10 µM | 10 µM | 10 µM | 77% | > 20 µM | 68% | > 20 µM | > 20 µM | > 20 µM | Q2 | > 50% | Q2 | Q2 | Fibrin Selectivity [6]: 2; Fibrin Selectivity (LOG10) [6]: 0.29; inhibition at 10 µM [8, 23]: > 50%; Quadrant (FIG. 5b) ([8]; Table 3, screen at 10 μM): Q2
